Laboratory results taken from patent US4806680A, “3-halovinylglycine antibacterial agents” (Merck & Co., Inc., priority 1987, dated 1989).
In brackets after ≈: the same amount, converted by molar mass. Where a name gives a salt, the structure may show the parent alone.

Legend:
[1] = system: S. aureus; experiment: Agar dilution assay (M.I.C.); format: cell-based, Staphylococcus aureus; settings: for MIC: Staphylococcus aureus, read-out: minimum inhibitory concentration (M.I.C.); for antibacterial activity (in words): vs S. aureus
Protocol: (§1) Representative 3-halovinylglycines and amino acid conjugates were tested for antibacterial activity by an agar dilution assay [being an modification of the antagonist-free-medium assay described in: Antimicrobial Agents and Chemotherapy, May 1979, pp 677-683 and pp 684-695]. Compounds assayed include (L) and (D)-3-chlorovinylglycine (HCL salts), (L) norvalyl-(L), (D), and (DL)-3 chlorovinylglycine (CF3 COOH salts), and (L) norvalyl-(L), (D), and (DL)-3 fluorovinylglycine (CF3 COOH) salts.

[2] = system: E. coli DC2; experiment: Agar dilution assay (M.I.C.); format: cell-based; settings: Escherichia coli, read-out: minimum inhibitory concentration (M.I.C.)
Protocol: as §1

[3] = system: cystathionine synthetase; settings: synthesis of cystathionine from serine; cited from earlier work
[4] = system: E. coli; experiment: Agar dilution assay (M.I.C.); format: cell-based, Escherichia coli; settings: vs E. coli
Protocol: as §1

[5] = system: E. Coli alanine racemase; experiment: Inhibition of E. coli alanine racemase; format: biochemical
[6] = system: K. pneumoniae; experiment: Agar dilution assay (M.I.C.); format: cell-based, Klebsiella pneumoniae; settings: vs K. pneumoniae
Protocol: as §1

[7] = system: Strep. faecalis; experiment: Agar dilution assay (M.I.C.); format: cell-based, Streptococcus faecalis; settings: vs Strep. faecalis
Protocol: as §1

[8] = system: eleven representative strains of pathogenic bacteria; experiment: Agar dilution assay, panel of eleven strains; format: cell-based; settings: for number of test species against which activity is shown: M.I.C. equal to or less than 256 indicates activity, 11 test species
Protocol: as §1
The antibacterial activity of the representative structure I compounds versus eleven representative strains of pathogenic bacteria is shown in the following Table.

[9] = system: Sal. typhimurium; experiment: Agar dilution assay (M.I.C.); format: cell-based; settings: Salmonella enterica, read-out: minimum inhibitory concentration (M.I.C.)
Protocol: as §1

[10] = system: E. coli TEM 2^+; experiment: Agar dilution assay (M.I.C.); format: cell-based; settings: Escherichia coli, read-out: minimum inhibitory concentration (M.I.C.)
Protocol: as §1

C=C(Cl)C(NC(=O)[C@@H](N)CCC)C(=O)O (mixture of isomers) [(L)-NVA--(DL)-Cl--vinylgly, L-norvalyl-D,L-3-chlorovinylglycine]
MIC [1]: ≤ 250 µg/mL | MIC [2]: 4000 µg/mL

C=C(Cl)C(N)C(=O)O (racemic) [racemic 3-chlorovinylglycine, 2-amino-3-chloro-3-butenoic acid]
inactivation of cystathionine synthetase (in words) [3]: not being an inactivator

C=C(Cl)[C@@H](N)C(=O)O [(D)Cl vinylgly, (D)-3-Chlorovinylglycine hydrochloride]
antibacterial activity (in words) [4]: exhibits antibacterial activity | inhibition of alanine racemase (in words) [5]: potent irreversible inhibitor | antibacterial activity (in words) [6]: exhibits antibacterial activity | antibacterial activity (in words) [1]: exhibits antibacterial activity | antibacterial activity (in words) [7]: exhibits antibacterial activity

C=C(Cl)[C@@H](NC(=O)[C@@H](N)CCC)C(=O)O [(L)-NVA--(D)-Cl--vinylgly, L-norvalyl-D-3-chlorovinylglycine]
MIC [2]: 32000 µg/mL (≈ 136 mM)

C=C(F)C(NC(=O)[C@@H](N)CCC)C(=O)O (stereo partly drawn) [(L)-NVA--(DL)-F--vinylgly, (L,DL)-Norvalyl-3-fluorovinylglycine trifluoracetate]
MIC [1]: 1000 µg/mL (≈ 4.58 mM) | MIC [2]: 4000 µg/mL (≈ 18.3 mM)

C=C(Cl)[C@H](NC(=O)[C@@H](N)CCC)C(=O)O [(L)-NVA--(L)-Cl--vinylgly, (L,L)-Norvalyl 3-chlorovinylglycine trifluoroacetate]
number of test species against which activity is shown [8]: 8 of 11 | MIC [9]: 64000 µg/mL | MIC [2]: 1000 µg/mL | MIC [10]: 8000 µg/mL

C=C(F)[C@H](NC(=O)[C@@H](N)CCC)C(=O)O [(L)-NVA--(L)-F--vinylgly, (L,L)-Norvalyl-3-fluorovinylglycine trifluoroacetate]
relative activity in the antibacterial agar dilution assay ([8]; (L,L) versus (L,D) diastereomer): more active | number of test species against which activity is shown [8]: 9 of 11 | MIC [2]: 2000 µg/mL | MIC [10]: 16000 µg/mL

C=C(Cl)[C@H](N)C(=O)O [(L)Cl vinylgly, L-3-chlorovinylglycine]
inhibition of alanine racemase (in words) [5]: inhibits | antibacterial activity (in words) [6]: exhibits antibacterial activity | antibacterial activity (in words) [1]: exhibits antibacterial activity | antibacterial activity (in words) [7]: exhibits antibacterial activity
